Experimental data reported in the supplement of paper PMC8967900.

What was measured:
Assay in all cases: selective drug sensitivity score (sDSS, relative to normal bone marrow) (sDSS (score)); higher = more potent and effective on the cell line relative to normal bone marrow cells
Conditions in all cases: 72 h
RCH-ACV = system: RCH-ACV
SEM cells = system: SEM cells
ALL-PO = system: ALL-PO
HAL-01 = system: HAL-01
RPMI-8402 = system: RPMI-8402
CCRF-HSB2 = system: CCRF-HSB2
REH = system: REH
TANOUE = system: TANOUE
COG-LL-319h = system: COG-LL-319h
MN-60 = system: MN-60
MOLT-16 = system: MOLT-16
P30-OHKUBO = system: P30-OHKUBO
P12-ICHIKAWA = system: P12-ICHIKAWA
PEER = system: PEER
COG-LL-355h = system: COG-LL-355h
DND-41 = system: DND-41
COG-LL-332h = system: COG-LL-332h
KARPAS-45 = system: KARPAS-45
MOLT-14 = system: MOLT-14
MHH-CALL-2 = system: MHH-CALL-2
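Further: ALL cell lines in 384-well plates, five doses spanning 10,000-fold, each plate scaled between vehicle and 100 µmol/L benzalkonium chloride controls, sDSS an adapted area-under-curve metric.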

Compound | selective drug sensitivity score (RCH-ACV) | selective drug sensitivity score (SEM cells) | selective drug sensitivity score (ALL-PO) | selective drug sensitivity score (HAL-01) | selective drug sensitivity score (RPMI-8402) | selective drug sensitivity score (CCRF-HSB2) | selective drug sensitivity score (REH) | selective drug sensitivity score (TANOUE) | selective drug sensitivity score (COG-LL-319h) | selective drug sensitivity score (MN-60) | selective drug sensitivity score (MOLT-16) | selective drug sensitivity score (P30-OHKUBO) | selective drug sensitivity score (P12-ICHIKAWA) | selective drug sensitivity score (PEER) | selective drug sensitivity score (COG-LL-355h) | selective drug sensitivity score (DND-41) | selective drug sensitivity score (COG-LL-332h) | selective drug sensitivity score (KARPAS-45) | selective drug sensitivity score (MOLT-14) | selective drug sensitivity score (MHH-CALL-2)
CN[C@@H](C)C(=O)N[C@H]1CN(C(=O)CC(C)C)CC[C@H]2CC[C@@H](C(=O)NC(c3ccccc3)c3ccccc3)N2C1=O [AT-406] (top concentration 10000 nM) | 0.84 | -1.26 | -1.26 | 3.04 | -0.96 | 1.94 | 5.74 | -1.26 | -1.06 | -1.26 | -1.26 | -1.06 | -1.26 | -1.16 | 8.04 | -1.26 | 2.54 | -1.26 | -1.26 | 2.14
Nc1nc2cc(-c3ccc4ncc(C(=O)N5CCOCC5)n4c3)ccc2o1 [Serabelisib] (top concentration 10000 nM) | 6.56 | 1.56 | 4.96 | -1.54 | -1.54 | -1.24 | 0.76 | -1.54 | -0.44 | -1.54 | -0.94 | 1.46 | -1.54 | -1.04 | 4.06 | 0.66 | -1.14 | 0.06 | 0.96 | 3.06
O=C1c2c(O)ccc(O)c2C(=O)c2c(NCCNCCO)ccc(NCCNCCO)c21 [Mitoxantrone] (top concentration 1000 nM) | 16.2 | 8.04 | -0.06 | 5.64 | 6.34 | 14.2 | 12.6 | -12.9 | 16.3 | -3.86 | 17 | 7.84 | 8.84 | -6.26 | 7.94 | 2.84 | 11.7 | -1.66 | 11.6 | 7.34
CC1=C2C[C@H]3[C@@H](CC[C@@H]4C[C@H](NS(C)(=O)=O)CC[C@@]43C)[C@@H]2CC[C@@]2(C1)O[C@@H]1C[C@H](C)CN[C@H]1[C@H]2C [Saridegib] (top concentration 10000 nM) | 6.64 | -1.16 | 1.74 | 1.14 | 0.54 | 0.24 | -1.16 | -1.16 | -0.06 | -1.16 | -0.26 | -0.66 | -0.06 | 2.94 | -0.96 | 4.74 | -0.06 | 3.44 | 1.04 | 3.14
CNC(=O)c1cccc2cc(Oc3ccnc4cc(OCC5(N)CC5)c(OC)cc34)ccc12 [Lucitanib] (top concentration 10000 nM) | 6.38 | 4.98 | 2.08 | 3.88 | 1.88 | 3.88 | 6.88 | 0.28 | 1.98 | -0.62 | 3.98 | 5.88 | 1.28 | 3.08 | -0.62 | 5.08 | 2.88 | 3.18 | 2.28 | 4.18
Cc1cccc(-c2nn3c(c2-c2ccnc4ccc(C(N)=O)cc24)CCC3)n1 [Galunisertib] (top concentration 1000 nM) | 0 | 0.1 | 0 | 1.6 | 0 | 0 | 0 | 0 | 0 | 0 | 0 | 2.9 | 0 | 0 | 0 | 0 | 0 | 0 | 0 | 8.5
Cc1nc(C(=O)NCC(=O)O)c(O)c2ccc(Oc3ccccc3)cc12 [Roxadustat] (top concentration 10000 nM) | -1.12 | -1.12 | -0.82 | 1.08 | -0.82 | -0.52 | -1.12 | -1.12 | 2.28 | -1.12 | 0.88 | -1.12 | -0.82 | 0.58 | -1.12 | -1.12 | -1.02 | -1.12 | -0.32 | -1.12
CC(C)(O)CC(=O)NCCn1ccc2ncnc(Nc3ccc(Oc4cccc(C(F)(F)F)c4)c(Cl)c3)c21 [TAK-285] (top concentration 2500 nM) | 0 | 0 | 0 | 3.1 | 0 | 0 | 0.1 | 0 | 0 | 0 | 0 | 0 | 0 | 0 | 0 | 0 | 0 | 0 | 0 | 1.6
CC(C)C(=O)Nc1ccc([N+](=O)[O-])c(C(F)(F)F)c1 [Flutamide] (top concentration 10000 nM) | 0.14 | 2.44 | -0.56 | 3.94 | 0.74 | -0.46 | -0.56 | 0.04 | -0.56 | -0.56 | 0.34 | 0.94 | 0.74 | 0.94 | -0.56 | -0.16 | -0.56 | 0.74 | -0.56 | 9.74
CNC(=O)c1ccc2cc([C@@]3(O)CCn4cncc43)ccc2c1 [Orteronel] (top concentration 10000 nM) | 0 | 0 | 0 | 0 | 0 | 0 | 0 | 0 | 4.9 | 0 | 0 | 0 | 0 | 0 | 0 | 0 | 0 | 0 | 0 | 0
NC(=S)N/N=C/c1ncccc1N [Triapine] (top concentration 10000 nM) | 7.38 | 2.18 | 2.28 | 2.18 | 2.38 | 8.48 | 3.88 | -1.32 | 10.6 | 1.48 | 4.68 | 2.88 | 5.18 | 2.08 | 1.08 | 7.38 | 2.78 | -0.12 | 2.08 | 3.48
C[C@@H](Oc1cc(-c2cnn(C3CCNCC3)c2)cnc1N)c1c(Cl)ccc(F)c1Cl [Crizotinib] (top concentration 1000 nM) | -0.54 | -0.54 | 1.46 | -0.54 | -0.54 | 4.26 | -0.54 | -0.54 | -0.54 | -0.54 | -0.54 | -0.54 | -0.54 | 1.86 | 2.16 | -0.54 | 2.76 | -0.24 | -0.54 | -0.54
C[C@]12CC[C@@H]3c4ccc(O)cc4C[C@@H](CCCCCCCCC[S+]([O-])CCCC(F)(F)C(F)(F)F)[C@H]3[C@@H]1CC[C@@H]2O (stereo not given in full) [Fulvestrant] (top concentration 1000 nM) | 0 | 0 | 2.3 | 0 | 0 | 0 | 0.2 | 0 | 0 | 0 | 0 | 0 | 0 | 0 | 1.3 | 8.3 | 0 | 0 | 0 | 1.5
CN1CCC(COc2cnc(-c3cccc(Cn4nc(-c5cccc(C#N)c5)ccc4=O)c3)nc2)CC1 [Tepotinib] (top concentration 1000 nM) | 0.42 | 0.22 | -0.08 | -0.08 | -0.08 | 0.02 | -0.08 | -0.08 | 2.22 | -0.08 | -0.08 | -0.08 | -0.08 | 0.02 | -0.08 | -0.08 | -0.08 | -0.08 | -0.08 | -0.08
Nc1ncnc2c1c(COc1cccc(Cl)c1)nn2C1CCOCC1 (top concentration 10000 nM) | 6.06 | -0.64 | 0.66 | 4.06 | 0.46 | 2.96 | -0.64 | 1.16 | 3.96 | 2.96 | -0.64 | 0.56 | -0.54 | -0.64 | 2.06 | -0.64 | -0.14 | 0.26 | -0.64 | 1.76
C[C@@H]1C[C@H]2[C@@H]3CCC4=CC(=O)C=C[C@]4(C)[C@@]3(F)[C@@H](O)C[C@]2(C)[C@@]1(O)C(=O)CO [Dexamethasone] (top concentration 10000 nM) | 38.8 | 10.9 | 43.2 | -1.42 | 3.18 | 18.8 | -1.52 | -1.42 | 26.5 | -0.52 | 9.68 | 28.6 | 28 | -0.92 | 30.7 | 36.3 | 1.88 | 24.4 | -1.52 | 28.9
N#Cc1ccnc(N2C(=O)CC[C@H]2C(=O)N(c2cncc(F)c2)[C@H](C(=O)NC2CC(F)(F)C2)c2ccccc2Cl)c1 [Ivosidenib] (top concentration 10000 nM) | 0 | 0 | 0 | 3.2 | 0.8 | 1.6 | 0.6 | 0 | 0 | 0 | 1 | 1.1 | 1 | 0.6 | 0 | 0 | 1 | 0.5 | 0.1 | 11.9
C#Cc1cccc(Nc2ncnc3cc4c(cc23)OCCOCCOCCO4)c1 [Icotinib] (top concentration 10000 nM) | 1.2 | 3 | 0.7 | 1.2 | 2.3 | 2.6 | 0 | 0 | 1.8 | 0.6 | 2.2 | 2.1 | 0.6 | 0.7 | 0.1 | 0 | 0.3 | 1.4 | 0 | 4.8
